From patent US6576784B1, “Antiviral agents” (Yeda Research and Development Co. Ltd., priority 1993, dated 2003)

Legend:
[1] = Quantum yield of singlet oxygen formation on irradiation in liposomes; assay type: physicochemical; details: for Quantum yields of singlet oxygen (φΔ) formed on irradiation of hypericin analogs in liposomes: soya liposomes, DPBF, light of 420 nm; for singlet oxygen formed on irradiation in liposomes (in words): irradiation with visible light, bound to liposomes
[2] = tested on: non-enveloped viruses such as polio and rhino viruses; details: Tang et al., Antiviral Res. 13:313 (1990); cited from earlier work
[3] = tested on: Murine Radiation Leukemia Virus (Rad LV); assay: Direct inactivation of murine radiation leukemia virus measured by inhibition of virus particle derived reverse transcriptase activity; assay type: biochemical; details: 0.01 μg/ml; virus incubated with compound on ice 30 min; FIG. 1
Description: Determination of Antiretroviral Activity of Hypericin Analogs by Monitoring the Direct Inactivation of Murine Radiation Leukemia Virus (Rad LV) Measured by the Inhibition of Virus Particle Derived Reverse Transcriptase Activity
Virus particles released into the growth medium of the AQR lymphoblastoid cell line which is infected with and producing RadLV, were exposed to hypericin and hypericin analogs. The virus and the substrate were incubated on ice for a period of 30 min., after which time the virus was precipitated by ultracentrifugation at 40,000 rpm for 1 hour in a Beckman ultracentrifuge, and analyzed for reverse transcriptase according to Stephenson et al., Virology 48:749 (1972). The results shown in FIG. 1 are expressed as counts per minute of tritiated-thymidine incorporation.

Murine Friend Virus = assay: Inhibition of Friend virus splenomegaly in BALB/c mice; assay type: in vivo; details: single intravenous dose within 1 hour of infection, FIG. 2
Description: Antiretroviral Activity of Hypericin Analogs Against Murine Friend Virus in BALB/c Mice
Mice infected with Friend virus (FV) develop a virus induced erythroleukemia whose early manifestation is a 4-8 time enlargement of the spleen size (splenomegaly) within 10 days after infection with the virus. Inhibition of splenomegaly can be used to quantitate the antiretroviral activity of various compounds in vivo. In this experiment, mice, in groups of 3, were infected with Friend virus and hypericin analogs (0.5 ml of solution in PBS) were then administered intravenously within 1 hour of the infection in a single dose of 1, 10, 50 and 150 μg per mouse.

[4] = G. Lavie et al, J.N.Y. Acad. Sci. 616:556, 1990; cited from earlier work

In the case of “2-(2-Methoxyethoxy)ethyl Ester Analog of Hypericin [Example 5]”, the “Quantum yields of singlet oxygen (φΔ) formed on irradiation of hypericin analogs in liposomes” value [1] is reported as 0.1.

With “2-Methoxyethyl Ester Analog of Hypericin [Example 4]” the “Quantum yields of singlet oxygen (φΔ) formed on irradiation of hypericin analogs in liposomes” value [1] was 0.35.

In the case of `Cc1cc(O)c2c(=O)c3c(O)cc(O)c4c5c(O)cc(O)c6c(=O)c7c(O)cc(C)c8c1c2c(c34)c(c78)c65` [hypericin, Hypericin, reference compound], the “singlet oxygen formed on irradiation in liposomes (in words)” value [1] is given as “comparatively high” and the “activity against non-enveloped viruses (in words)” value [2] is given as “not active”.

With “Methyl Ester Analog of Hypericin [Example 1]” the “antiviral activity (inhibition of virus particle derived reverse transcriptase activity, tritiated-thymidine incorporation)” value [3] was “antiviral activity”, the “Quantum yields of singlet oxygen (φΔ) formed on irradiation of hypericin analogs in liposomes” value [1] was 0.38 and the inhibition of splenomegaly (Murine Friend Virus; 10 μg per mouse) was 65%.

With “n-butyl Ester Analog of Hypericin [Example 3]” the “antiviral activity (inhibition of virus particle derived reverse transcriptase activity, tritiated-thymidine incorporation)” value [3] was “antiviral activity” and the inhibition of splenomegaly (Murine Friend Virus; 150 μg per mouse) was 70%.

Molecule “n-propyl Ester Analog of Hypericin [Example 2]” has an inhibition of splenomegaly (Murine Friend Virus; 10 μg per mouse) of 47%.

For “octahydroxy hypericin [R1, R2 = OH, reference compound]”, the “singlet oxygen formed on irradiation in liposomes (in words)” value [1] is given as “did not produce detectable yields of singlet oxygen”, the “Quantum yields of singlet oxygen (φΔ) formed on irradiation of hypericin analogs in liposomes” value [1] is given as under 0.01 and the “antiviral activity (in words)” value [4] is given as “very weak antiviral activity”.
